The target in experiment [1] is ALK1 (Homo sapiens, UniProt P37023). The experiment in a line: TR-FRET enzymatic ALK kinase assay, ALK1.
Method: (§1) Briefly, the ALKs enzymatic assay was initiated by dispense 2.5 μl enzyme in 1× kinase reaction buffer. The assay plate was then added with compounds followed by incubation at room temperature for 10 minutes. Then 2.5 μl/well substrate was added.
In experiment [2] the target is T1, ALK2 (Homo sapiens, UniProt Q04771).
T1 sequence (Q04771 21-509): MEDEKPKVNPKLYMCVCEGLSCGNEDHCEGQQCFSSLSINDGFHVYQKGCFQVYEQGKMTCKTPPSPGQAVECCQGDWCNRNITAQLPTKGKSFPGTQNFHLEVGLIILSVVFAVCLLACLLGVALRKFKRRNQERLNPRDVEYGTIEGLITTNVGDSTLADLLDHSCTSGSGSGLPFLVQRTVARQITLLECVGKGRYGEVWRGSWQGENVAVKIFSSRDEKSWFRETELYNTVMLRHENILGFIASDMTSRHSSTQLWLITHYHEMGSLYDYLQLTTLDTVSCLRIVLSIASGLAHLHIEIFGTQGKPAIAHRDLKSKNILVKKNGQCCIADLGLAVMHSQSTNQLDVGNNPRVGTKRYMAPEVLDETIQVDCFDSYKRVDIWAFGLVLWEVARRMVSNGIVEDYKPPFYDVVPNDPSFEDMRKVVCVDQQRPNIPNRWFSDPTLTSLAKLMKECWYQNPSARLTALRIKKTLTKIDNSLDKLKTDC
The experiment in a line: TR-FRET enzymatic ALK kinase assay, ALK2.
Method: as §1

In experiment [3] the target is ALK3 (Homo sapiens, UniProt P36894). Nature of the experiment: TR-FRET enzymatic ALK kinase assay, ALK3. In general terms: TR-FRET usually uses a lanthanide donor and a delayed reading to cut background.
ALK3, sequence (P36894 24-532): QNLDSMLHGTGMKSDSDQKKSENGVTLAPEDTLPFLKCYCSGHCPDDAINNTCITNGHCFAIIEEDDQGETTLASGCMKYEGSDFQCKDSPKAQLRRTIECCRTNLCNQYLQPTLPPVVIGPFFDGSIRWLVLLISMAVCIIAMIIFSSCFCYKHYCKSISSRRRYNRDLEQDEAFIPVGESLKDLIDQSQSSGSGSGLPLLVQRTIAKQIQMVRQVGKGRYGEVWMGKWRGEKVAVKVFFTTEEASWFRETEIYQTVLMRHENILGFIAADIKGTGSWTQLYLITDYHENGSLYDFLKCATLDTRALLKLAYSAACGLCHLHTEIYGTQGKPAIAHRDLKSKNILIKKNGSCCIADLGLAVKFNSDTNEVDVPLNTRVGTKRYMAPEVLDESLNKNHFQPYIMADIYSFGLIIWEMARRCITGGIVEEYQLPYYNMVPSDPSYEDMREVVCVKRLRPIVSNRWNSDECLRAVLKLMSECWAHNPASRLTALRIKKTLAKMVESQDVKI
Method: as §1
Experiment [4] addresses T2, ALK4 (Homo sapiens, UniProt P36896).
T2 sequence (P36896 24-505): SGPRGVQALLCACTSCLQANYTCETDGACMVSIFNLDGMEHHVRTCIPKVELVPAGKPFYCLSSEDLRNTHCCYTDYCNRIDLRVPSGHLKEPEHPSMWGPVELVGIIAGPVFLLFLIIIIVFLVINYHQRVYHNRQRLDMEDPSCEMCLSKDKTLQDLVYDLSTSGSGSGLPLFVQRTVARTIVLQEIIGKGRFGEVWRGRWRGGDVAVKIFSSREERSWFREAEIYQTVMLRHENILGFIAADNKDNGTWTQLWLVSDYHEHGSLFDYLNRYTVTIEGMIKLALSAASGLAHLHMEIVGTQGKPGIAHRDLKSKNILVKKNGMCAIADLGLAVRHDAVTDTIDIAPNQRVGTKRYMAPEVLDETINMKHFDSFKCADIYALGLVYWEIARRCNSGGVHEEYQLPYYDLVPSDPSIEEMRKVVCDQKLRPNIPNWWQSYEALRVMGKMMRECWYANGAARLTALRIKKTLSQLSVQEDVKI
Nature of the experiment: TR-FRET enzymatic ALK kinase assay, ALK4.
Method: as §1

Experiment [5] addresses T3, ALK2 (Mus musculus, UniProt P37172).
T3 construct: The C2C12 cell line was selected for the measurement of ALK2 activity using BMP6 as the agonist; host or cells: C2C12
T3 sequence (P37172 21-509): T1 sequence (Q04771 21-509) with M1V, P10Q, L121I, D162E, P310S
The experiment in a line: HTRF pSMAD1 cell-based ALK2 assay (C2C12 cells, BMP6 as agonist). To be noted: BMP6. As for the experimental part:
2. HTRF Cell-Based ALK1 and ALK2 Assays in 384-Well Plate Format We have developed a cell based ALK1 kinase assay and a cell-based ALK2 assay. The BAOEC cell line was employed for the measurement of ALK1 activity using BMP9 as the agonist. The C2C12 cell line was selected for the measurement of ALK2 activity using BMP6 as the agonist. The kinase specificity was defined by the specific cell line and agonist. The kinase activity was determined by the status of SMD 1/5/8 phosphorylation stimulated by the agonist.
HyClone Fetal Bovine Serum was obtained from GE healthcare life sciences (Logan, Utah). BMP6 and BMP9 were purchased from R&D System. […] The compound plates and the white solid MB assay plates were purchased from Greiner Bio-one (Monroe, N.C.).
HTRF optimization experiments were performed in 384 well plate format. […] Pre-starved cells were then plated in 384 well plate in the starvation medium (containing in 0.1% FBS). After 4 hours, compounds were added to the assay plate and incubated for 30 minutes. The assay plate was then added with BMP6 for C2C12 cells or BMP9 for BAOEC cells and incubated for 30 minutes.
HTRF assay was performed to measure the status of SMAD 1 phosphorylation after stimulated with the agonist (Table 3). This HTRF phospho SMAD1 cell assay was developed and optimized for the homogenous detection of phospho SMAD 1 levels in cells. […] The plate was incubated at room temperature for overnight.

The target of experiment [6] is T4, ALK5 (Homo sapiens, UniProt P36897).
T4 sequence (P36897 34-503): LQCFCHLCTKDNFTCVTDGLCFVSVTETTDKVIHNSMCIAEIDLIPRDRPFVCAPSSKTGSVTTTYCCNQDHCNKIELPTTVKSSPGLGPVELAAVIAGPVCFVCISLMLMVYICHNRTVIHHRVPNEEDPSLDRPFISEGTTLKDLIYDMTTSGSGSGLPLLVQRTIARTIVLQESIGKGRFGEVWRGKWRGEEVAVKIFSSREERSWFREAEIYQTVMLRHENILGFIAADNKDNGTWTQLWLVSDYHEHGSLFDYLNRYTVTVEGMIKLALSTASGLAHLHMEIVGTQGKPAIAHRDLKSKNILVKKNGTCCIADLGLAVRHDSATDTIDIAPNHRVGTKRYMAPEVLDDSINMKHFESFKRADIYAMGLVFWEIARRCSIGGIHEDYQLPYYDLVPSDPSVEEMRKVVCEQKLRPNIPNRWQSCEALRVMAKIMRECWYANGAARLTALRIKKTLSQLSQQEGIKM
The experiment in a line: TR-FRET enzymatic ALK kinase assay, ALK5.
Method: Six ALK kinase enzyme assays were developed for determination of compound activities on ALK1, ALK2, ALK3, ALK4, ALK5 and ALK6.
as §1

Experiment [7] concerns the target ALK6 (Homo sapiens, UniProt O00238). Nature of the experiment: TR-FRET enzymatic ALK kinase assay, ALK6.
Method: as §1
The mark [8] stands for this setting: cell-based assay, read-out: Cell IC50 BMP6.
Where [9] appears, read: Cell IC50 BMP6, cell-based assay.

Positions count from the first letter of the chain named. Like-named read-outs stand apart in the source and are kept apart here.

ALK6, sequence (O00238 14-502): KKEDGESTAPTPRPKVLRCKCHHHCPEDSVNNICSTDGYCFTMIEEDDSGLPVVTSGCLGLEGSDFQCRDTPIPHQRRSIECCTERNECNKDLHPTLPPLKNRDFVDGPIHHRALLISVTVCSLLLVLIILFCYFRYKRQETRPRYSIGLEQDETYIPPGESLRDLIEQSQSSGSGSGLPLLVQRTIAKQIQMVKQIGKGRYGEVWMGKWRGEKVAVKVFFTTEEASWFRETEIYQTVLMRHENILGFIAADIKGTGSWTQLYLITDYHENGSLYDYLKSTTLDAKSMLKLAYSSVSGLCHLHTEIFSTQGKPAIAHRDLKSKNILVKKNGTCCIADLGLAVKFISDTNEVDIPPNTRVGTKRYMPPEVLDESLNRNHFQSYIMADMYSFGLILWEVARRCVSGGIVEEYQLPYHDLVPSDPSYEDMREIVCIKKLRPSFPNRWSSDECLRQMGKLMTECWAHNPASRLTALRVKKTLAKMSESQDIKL
ALK1, sequence (P37023 22-503): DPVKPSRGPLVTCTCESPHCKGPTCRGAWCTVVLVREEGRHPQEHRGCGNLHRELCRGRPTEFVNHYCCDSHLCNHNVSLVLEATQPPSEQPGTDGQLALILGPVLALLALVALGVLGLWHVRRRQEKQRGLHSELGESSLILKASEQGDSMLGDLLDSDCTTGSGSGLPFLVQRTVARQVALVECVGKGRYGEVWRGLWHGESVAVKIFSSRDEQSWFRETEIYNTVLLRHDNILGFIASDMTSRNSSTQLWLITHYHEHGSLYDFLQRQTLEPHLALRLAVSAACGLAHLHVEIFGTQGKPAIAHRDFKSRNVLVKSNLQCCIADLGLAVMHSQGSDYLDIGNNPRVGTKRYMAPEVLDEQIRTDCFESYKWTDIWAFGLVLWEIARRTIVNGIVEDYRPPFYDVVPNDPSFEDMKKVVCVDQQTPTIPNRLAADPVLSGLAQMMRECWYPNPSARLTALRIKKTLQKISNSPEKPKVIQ

In the case of `C[C@@H]1CNC[C@H](C)N1c1ccc(-c2cnc3c(-c4ccc(Cl)c5ccccc45)cnn3c2)cc1` [Compound 44, 3-(4-chloronaphthalen-1-yl)-6-(4-((2R,6S)-2,6-dimethylpiperazin-1-yl)phenyl)pyrazolo[1,5-a]pyrimidine], the IC50 is 390 nM in experiment [1]; 130 nM in experiment [2]; 2 µM in experiment [3]; more than 10 µM in experiment [4]; 5500 nM in experiment [5] (setting [8]); more than 10 µM in experiment [6]. This compound also showed an IC50 in experiment [7] of more than 10 µM.

In the case of `C[C@@H]1CNC[C@H](C)N1c1ccc(-c2cnc3c(-c4ccc(S(=O)(=O)C(F)(F)F)cc4)cnn3c2)cc1` [Compound 45, 6-(4-((2R,6S)-2,6-dimethylpiperazin-1-yl)phenyl)-3-(4-((trifluoromethyl)sulfonyl)phenyl)pyrazolo[1,5-a]pyrimidine], the IC50 in experiment [1] was more than 10000 nM; in experiment [2] it was more than 10000 nM; in experiment [3], more than 10 µM; in experiment [4], more than 10 µM; in experiment [5] (setting [8]), 9160 nM; in experiment [6], more than 10 µM. In experiment [7], the IC50 was more than 10 µM.

In the case of `NS(=O)(=O)c1ccc(-c2cnn3cc(-c4ccc(N5CCNCC5)nc4)cnc23)c2ccccc12` [Compound 49, 4-(6-(6-(piperazin-1-yl)pyridin-3-yl)pyrazolo[1,5-a]pyrimidin-3-yl)naphthalene-1-sulfonamide], the IC50 in experiment [1] is 1700 nM; in experiment [4], more than 10 µM; in experiment [5] (setting [9]) it was 316 nM; in experiment [6], more than 10 µM; in experiment [7], more than 10 µM.

In the case of `CC(C)(CN1CCCCC1)Oc1ccc(-c2cnc3c(-c4ccc(S(N)(=O)=O)c5ccccc45)cnn3c2)cc1` [Compound 52, 4-(6-(4-((2-methyl-1-(piperidin-1-yl)propan-2-yl)oxy)phenyl)pyrazolo[1,5-a]pyrimidin-3-yl)naphthalene-1-sulfonamide], the IC50 is 170 nM in experiment [1]; more than 10 µM in experiment [4]; 8 nM in experiment [5] (setting [9]); more than 10 µM in experiment [6]; more than 10 µM in experiment [7].

In the case of `C[C@@H]1CNC[C@H](C)N1c1ccc(-c2cnc3c(-c4ccc(S(N)(=O)=O)c(N)c4)cnn3c2)cc1` [Compound 57, 2-amino-4-(6-(4-((2R,6S)-2,6-dimethylpiperazin-1-yl)phenyl)pyrazolo[1,5-a]pyrimidin-3-yl)benzenesulfonamide], the IC50 in experiment [1] was 760 nM; in experiment [4] it was more than 10 µM; in experiment [5] (setting [8]), 750 nM; in experiment [6], more than 10 µM; in experiment [7] it was more than 10 µM.

For the compound `C[C@@H]1CNC[C@H](C)N1c1ccc(-c2cnc3c(-c4cccc(S(N)(=O)=O)c4)cnn3c2)cc1` [Compound 60, 3-(6-(4-((2R,6S)-2,6-dimethylpiperazin-1-yl)phenyl)pyrazolo[1,5-a]pyrimidin-3-yl)benzenesulfonamide], the IC50 in experiment [1] was 210 nM; in experiment [4] it was more than 10 µM; in experiment [5] (setting [8]), 609 nM; in experiment [6], more than 10 µM; in experiment [7], more than 10 µM.

Turning to `CS(=O)(=O)c1cccc(-c2cnn3cc(-c4ccc(OCCn5ccnc5)cc4)cnc23)c1` [Compound 102, 6-(4-(2-(1H-imidazol-1-yl)ethoxy)phenyl)-3-(3-(methylsulfonyl)phenyl)pyrazolo[1,5-a]pyrimidine], in experiment [5] (setting [8]), the IC50 is 225 nM.

Regarding `NS(=O)(=O)c1ccc(-c2cnn3cc(-c4ccc(OC5(CN6CCCC6)CC5)cc4)cnc23)c2ccccc12` [Compound 207, 4-(6-(4-(1-(pyrrolidin-1-ylmethyl)cyclopropoxy)phenyl)pyrazolo[1,5-a]pyrimidin-3-yl)naphthalene-1-sulfonamide], the IC50 in experiment [1] was 170 nM; in experiment [2], 16 nM; in experiment [3] it was more than 10 µM; in experiment [4], more than 10 µM; in experiment [6] it was more than 10 µM; in experiment [7], more than 10 µM.

For `NS(=O)(=O)c1ccc(-c2cnn3cc(-c4ccc(OC5(CN6CCCCC6)CC5)cc4)cnc23)c2ccccc12` [Compound 208, 4-(6-(4-(1-(piperidin-1-ylmethyl)cyclopropoxy)phenyl)pyrazolo[1,5-a]pyrimidin-3-yl)naphthalene-1-sulfonamide], the IC50 in experiment [1] is 200 nM; in experiment [2], 15 nM; in experiment [3] it was more than 10 µM; in experiment [4], more than 10 µM; in experiment [6], more than 10 µM; in experiment [7], more than 10 µM.

`NC1(c2ccc(-c3cnc4c(-c5ccc(S(N)(=O)=O)c6ccccc56)cnn4c3)cc2)CNC1` [Compound 209, 4-(6-(4-(3-aminoazetidin-3-yl)phenyl)pyrazolo[1,5-a]pyrimidin-3-yl)naphthalene-1-sulfonamide]: the IC50 in experiment [1] was 340 nM; in experiment [2], 69 nM; in experiment [3] it was more than 10 µM; in experiment [4] it was more than 10 µM; in experiment [6], more than 10 µM; in experiment [7], more than 10 µM.

As to “(3R)-1-((1-(4-(3-(3-(1-amino-2,2,2-trifluoroethyl)phenyl)pyrazolo[1,5-a]pyrimidin-6-yl)phenoxy)cyclopropyl)methyl)-3-methylpyrrolidin-3-ol [Compound 185]”, the IC50 in experiment [1] (read-out: Kinase Assay ALK1, enzyme assay) was 540 nM; in experiment [2] (read-out: Kinase Assay ALK2, enzyme assay), 44 nM; in experiment [3] (read-out: Kinase Assay ALK3, enzyme assay) it was 1.8 µM; in experiment [4] (read-out: Kinase Assay ALK4, enzyme assay), more than 10 µM; in experiment [6] (read-out: Kinase Assay ALK5, enzyme assay) it was more than 10 µM; in experiment [7] (read-out: Kinase Assay ALK6, enzyme assay), more than 10 µM.
